We go through 53 compounds from the OPERA property sets (Mansouri et al. 2018).

Details in the first data set: not given
Broadly, the melting point is the temperature, or range, at which the solid turns liquid. Regarding `CC(C)(C)c1cc(O)c(C(C)(C)C)cc1O`, the melting point was 218 °C.
One may read the boiling point as the temperature of boiling at a given pressure. Consider `CC(C)=C(C)C`, for which the boiling point was 73.3 °C, the log10 vapour pressure (mmHg) amounted to 2.1 and the melting point was -74.6 °C.
As for `Cc1ccccc1CC(C)C`, the boiling point was 196 °C and the melting point is -73.3 °C.
As to `CC1=C(c2ccccc2)C(=O)N(C(C)(C)c2cc(Cl)cc(Cl)c2)CO1`, the melting point came out at 150 °C.
Take `CCO[Si](C)(OCC)OCC`: the boiling point stood at 142 °C.
Compound `O=C(O)C(Cc1ccccc1)C(=O)O` displayed a melting point of 121 °C.
Compound `NCc1ccncc1` displayed a boiling point of 230 °C and a melting point of -7.6 °C.
With `C=C[C@H]1C[N@@]2CC[C@H]1C[C@H]2C12Nc3ccccc3C1(O)CCO2` (stereo not given in full), the melting point came to 186 °C.
Compound `Clc1ccc(Cl)c(Oc2ccccc2)c1Cl` registered a log10 vapour pressure (mmHg) of -3.55.
`CC(O)C(C)CO` (stereo not given) displayed a boiling point of 200 °C.
`O=C(O)c1ccc2cc(C(=O)O)ccc2c1`: the ready biodegradability result was “not readily biodegradable”.
For the compound `C=CCc1cc(OC)c(OC)c(OC)c1OC`, the melting point worked out at 25 °C.
Consider `C=C(C)C(=C)C`, for which the boiling point came out at 68.8 °C, the log10 vapour pressure (mmHg) amounted to 2.18 and the melting point was -76 °C.
`COc1cc(C=O)ccc1O`: the boiling point is 285 °C, the log10 vapour pressure (mmHg) was -3.93, the melting point is 81.5 °C and the ready biodegradability result was “readily biodegradable”.
As to `CCCCCCCCCCCCN1CC(C(=O)OC)CC1=O` (stereo not given), the melting point turned out to be 27.5 °C.
The compound `NS(=O)(=O)c1ccc(SCCO)c(F)c1` gave a melting point of 110 °C.
The compound `CCCC(=O)OCCOc1ccccc1` returned a boiling point of 251 °C.
The compound `O=[N+]([O-])c1cccc2cccc(Cl)c12` returned a melting point of 95.8 °C.
`CC(=O)CCC(C)=O` registered a boiling point of 194 °C and a melting point of -5.5 °C.
On to `Clc1ccc(-c2c(Cl)cc(Cl)cc2Cl)cc1`, for which the melting point was 65 °C.
The compound `CC(C)S(=O)(=O)n1c(N)nc2ccc(/C(=N/O)c3ccccc3)cc21` gave a melting point of 198 °C.
Regarding `Clc1c(Cl)c(Cl)c(Cl)c(Cl)c1Cl`, the boiling point came out at 325 °C, the log10 Henry constant (atm·m³/mol) was -2.77, the log10 Koa amounted to 7.38 and the log10 Koc (L/kg) was 3.74. For the same compound, the log10 vapour pressure (mmHg) is -4.74, the melting point came to 232 °C and the ready biodegradability entry was “not readily biodegradable”.
In turn, `CC(F)(F)F` gave a boiling point of -47.5 °C, a log10 vapour pressure (mmHg) of 3.98 and a melting point of -111 °C.
The compound `O=Cc1cccc(C(=O)O)c1` returned a melting point of 174 °C.
Consider `CC(Cl)(Cl)C(=O)Cl`, for which the boiling point turned out to be 118 °C.
As for `CC(=O)[O-].[NH4+]`, the melting point was 114 °C.
On to `CN(C)c1ccc(CO)cc1`, for which the melting point stood at 69 °C.
On to `Cl.NCCc1ccc(O)c(O)c1`, for which the melting point was 249 °C.
As to `C=CC(=O)O`, the boiling point is 141 °C, the log10 vapour pressure (mmHg) came out at 0.599, the melting point came out at 13.5 °C and the ready biodegradability entry is “readily biodegradable”.
Consider `CCCCCOC(=O)c1ccccc1C(=O)OCCCCC`, for which the boiling point came to 342 °C.
Turning to `COc1ccccc1F`, the boiling point was determined as 154 °C and the melting point was -39 °C.
The compound `C=C1C(=O)O[C@@H]2[C@H]1CC[C@H](C)[C@]1(O)C=CC(=O)[C@@]21C` displayed a melting point of 164 °C.
For the compound `C=CC(=O)CC`, the boiling point was found to be 103 °C.
The compound `C#CC(C)OC(=O)Nc1cccc(Cl)c1` (stereo not given) displayed a log10 Koc (L/kg) of 2.21, a log10 vapour pressure (mmHg) of -4.8 and a melting point of 45.5 °C.
Consider `O=C(O)CCC(=O)C(=O)O`, for which the melting point is 116 °C.
Compound `COc1cc(C(=O)c2ccc(Cl)cc2)cc(OC)c1OCCN1CCOCC1` showed a melting point of 91.5 °C.
As to `CCOC(=O)c1cnc2cc(OCC(C)C)c(OCC(C)C)cc2c1O`, the melting point was found to be 290 °C.
In the case of `CCCOC(=O)c1ccc(N)cc1`, the melting point turned out to be 75 °C.
Take `Clc1cc(Cl)c2cc(Cl)cc(Cl)c2c1`: the log10 Koa amounted to 7.9 and the melting point is 180 °C.
The compound `CCOc1ccc(F)cc1` displayed a boiling point of 173 °C and a melting point of -8.5 °C.
Compound `C[Si](Cl)(Cl)C(Cl)Cl` gave a boiling point of 149 °C.
On to `CN(C)C(=O)Nc1ccc(Cl)c(Cl)c1`, for which the log10 Koc (L/kg) worked out at 2.4, the log10 vapour pressure (mmHg) was -7.16, the melting point amounted to 158 °C and the ready biodegradability entry is “not readily biodegradable”.
With `COc1ccc2c(c1OC)C(=O)O[C@@H]2[C@H]1c2c(cc3c(c2OC)OCO3)CCN1C`, the melting point amounted to 176 °C.
`CC1=CCC(=O)O1` had a melting point of 18 °C.
As for `Clc1cccc(-c2c(Cl)cc(Cl)cc2Cl)c1`, the log10 Henry constant (atm·m³/mol) is -3.68.
`Nc1ccc(C(F)(F)F)cc1` registered a melting point of 38 °C.
`CCC(C(=O)O)C1(O)CCC(c2ccccc2)CC1` (stereo not given): the melting point was 157 °C.

The same data set, now with this note: fish.
Compound `[2H]C([2H])([2H])C([2H])([2H])C([2H])([2H])C([2H])([2H])C([2H])([2H])C([2H])([2H])C([2H])([2H])C([2H])([2H])C([2H])([2H])C([2H])([2H])C([2H])([2H])C([2H])([2H])C([2H])([2H])C([2H])([2H])C([2H])([2H])C([2H])([2H])[2H]` registered a log10 biotransformation half-life (days) of 1.47.
`C=Cc1ccc(C=C)cc1`: the log10 BCF was found to be 2.48 and the log10 biotransformation half-life (days) worked out at 0.5.
Consider `O=C(O)c1ccc(C(=O)O)nc1`, for which the log10 BCF was 0.76.
In the case of `COc1cc(Cl)c(Cl)cc1Cl`, the log10 BCF worked out at 2.81.
Take `CCc1cccc(CC)c1`: the log10 BCF came out at 2.73 and the log10 biotransformation half-life (days) stood at 0.09.
In turn, `CC(CC(C)(C)C)CC(C)(C)CC(C)(C)C` (stereo not given) registered a log10 BCF of 3.82 and a log10 biotransformation half-life (days) of 1.81.
`O=C(O)c1ccc2cc(C(=O)O)ccc2c1` had a log10 BCF of 0.81.
Consider `Clc1c(Cl)c(Cl)c(Cl)c(Cl)c1Cl`, for which the log10 BCF came to 4.33 and the log10 biotransformation half-life (days) is 2.44.
The compound `CN(C)C(=O)Nc1ccc(Cl)c(Cl)c1` came in with a log10 BCF of 1.15 and a log10 biotransformation half-life (days) of -1.45.
